In patent US20120029048A1, “PHENYLALKYL N-HYDROXYUREAS FOR TREATING LEUKOTRIENE RELATED PATHOLOGIES” (VIA Pharmaceuticals, Inc., priority 2010, published 2012):

Legend:
LTE4 = experiment: Urinary LTE4 by LC/MS/MS, Phase 2 CEA study; assay type: in vivo, human; conditions: 100 mg qd oral 12 weeks, CEA patients, compared with placebo (p<0.01)
Protocol: (§1) In this randomized, double blind, placebo-controlled study, 50 patients with significant carotid artery stenosis (60-90%) were treated once daily for 12 weeks with orally administered 100 mg N-[3-[5-[(4-fluorophenyl)methyl]-2-thienyl]-1-methyl-2-propynyl]-N-hydroxyurea or placebo prior to undergoing CEA, at which time endarterectomy tissue (plaque) was collected and stored for subsequent tissue analysis. Baseline assessments are performed at the start of treatment and these baseline results were compared with repeat assessments during various follow-up periods of treatment. The treatment was conducted for twelve weeks at which time these baseline assessments were performed and compared. Patients received a total single daily oral dose of 100 mg of N-[3-[5-[(4-fluorophenyl)methyl]-2-thienyl]-1-methyl-2-propynyl]-N-hydroxyurea or matching placebo by administering 2 capsules as prepared in Example 3 for 12 weeks. Blood samples for measurement of ex vivo LTB4 and hsCRP, and urine samples for measurement of urinary LTE4 levels were collected pre-dose on weeks 2, 6 and 12. […] LTB4, LTE4 and hsCRP biomarker data were assessed using change from baseline comparisons and an ANCOVA was used to compare the treatment groups where the covariate was the baseline value of the outcome measure. […]

non-calcified plaque = experiment: Serial MDCT coronary plaque imaging, Phase 2 ACS study, 24-week substudy; assay type: in vivo, human; conditions: all three doses, 24 weeks, compared with placebo
Protocol: In this randomized, placebo-controlled study, 191 patients were randomized 3 weeks after an acute coronary syndrome (ACS) to receive 25, 50, or 100 mg N-[3-[5-[(4-fluorophenyl)methyl]-2-thienyl]-1-methyl-2-propynyl]-N-hydroxyurea or placebo qd for 12 weeks. Baseline assessments were performed at the start of treatment and these baseline results were compared with repeat assessments during various follow-up periods during the treatment study. A subset of 93 patients who had undergone a Multidetector (64 slice coronary) Computerized Tomography (MDCT) examination at baseline continued on study medication for a total of 24 weeks and underwent a repeat scan. For those patients who continued on study medication for a total of 24 weeks, contrast-enhanced CT examination was performed at baseline and after 24 weeks of treatment with a 64-slice scanner (GE LightSpeed VCT; GE Healthcare, USA). Target plaque lesions were defined prospectively as non-calcified plaque with measurable low-density components of <60 HU situated in the proximal or middle portion of either the left main, left anterior ascending, left circumflex or right coronary artery causing at least 20% luminal stenosis. Prior to analysis of results, patients had their MDCT examinations evaluated twice by the same reviewer and also by a second reviewer for evaluation of intraobserver and interobserver variability of measurements.

leukotriene E4 (LTE4) = experiment: Urinary LTE4 by LC/MS/MS, Phase 2 ACS study; assay type: in vivo, human; conditions: all doses (25, 50, 100 mg qd), ACS patients
Protocol: (§2) In this randomized, placebo-controlled study, 191 patients were randomized 3 weeks after an acute coronary syndrome (ACS) to receive 25, 50, or 100 mg N-[3-[5-[(4-fluorophenyl)methyl]-2-thienyl]-1-methyl-2-propynyl]-N-hydroxyurea or placebo qd for 12 weeks. Baseline assessments were performed at the start of treatment and these baseline results were compared with repeat assessments during various follow-up periods during the treatment study. A subset of 93 patients who had undergone a Multidetector (64 slice coronary) Computerized Tomography (MDCT) examination at baseline continued on study medication for a total of 24 weeks and underwent a repeat scan. Patients received a single daily oral dose of 25 mg, 50 mg, or 100 mg of N-[3-[5-[(4-fluorophenyl)methyl]-2-thienyl]-1-methyl-2-propynyl]-N-hydroxyurea or matching placebo by administering 2 capsules as prepared in Example 3 for 12 weeks or 24 weeks. Blood samples for measurement of ex vivo leukotriene B4 (LTB4) and high sensitivity C reactive protein (hsCRP), and urine samples for measurement of urinary leukotriene E4 (LTE4) levels were collected pre-dose on weeks 2, 6 and 12. Blood samples were assayed for ex vivo LTB4 by enzyme-linked immunosorbent assay, and for hsCRP by an immunoturbidimetric method. Urine samples were assayed for LTE4 using Liquid Chromatography with Tandem Mass Spectrometry (LC/MS/MS).

[1] = tested on: high sensitivity C reactive protein (hsCRP); experiment: hsCRP in blood by immunoturbidimetric method, Phase 2 ACS study; assay type: in vivo, human; conditions: for hsCRP change from baseline, LSMEANS geometric mean (%) / hsCRP change from baseline, Median (25-75): 12 weeks
Protocol: as §2

[2] = tested on: inflammatory genes IL-6, IL 8, IL-10, MMP9, I-kappa-B, osteopontin; experiment: Inflammatory gene expression in carotid plaques (TaqMan), Phase 2 CEA study; assay type: in vivo, human; conditions: rupture-prone plaque subtypes, 100 mg qd 12 weeks
Protocol: (§3) In this randomized, double blind, placebo-controlled study, 50 patients with significant carotid artery stenosis (60-90%) were treated once daily for 12 weeks with orally administered 100 mg N-[3-[5-[(4-fluorophenyl)methyl]-2-thienyl]-1-methyl-2-propynyl]-N-hydroxyurea or placebo prior to undergoing CEA, at which time endarterectomy tissue (plaque) was collected and stored for subsequent tissue analysis. Baseline assessments are performed at the start of treatment and these baseline results were compared with repeat assessments during various follow-up periods of treatment. The treatment was conducted for twelve weeks at which time these baseline assessments were performed and compared.
(§4) At the end of 12 weeks treatment with 100 mg of N-[3-[5-[(4-fluorophenyl)methyl]-2-thienyl]-1-methyl-2-propynyl]-N-hydroxyurea, patients underwent CEA, at which time endarterectomy tissue (plaque) was collected, fixed in 10% formalin and paraffin blocks, and stored for subsequent tissue analysis. […] A portion of each of the plaques was also analyzed for inflammatory gene expression after isolation of total RNA and reverse transcription using a TaqMan® High Capacity cDNA assay.
(§5) LTB4, LTE4 and hsCRP biomarker data were assessed using change from baseline comparisons and an ANCOVA was used to compare the treatment groups where the covariate was the baseline value of the outcome measure. […]

LTB4 = experiment: Ex vivo LTB4 in blood by ELISA, Phase 2 CEA study; design: species or system human; conditions: 100 mg qd oral 12 weeks, CEA patients, compared with placebo (p<0.0001)
Protocol: as §1

[3] = tested on: carotid plaques with rupture-prone histological subtypes; experiment: Relative necrotic core thickness in carotid plaques, Phase 2 CEA study; assay type: in vivo, human; conditions: rupture-prone plaque subtypes, 100 mg qd 12 weeks, compared with placebo (p<0.02)
Protocol: as §3, §4, §5

hsCRP = hsCRP in blood by immunoturbidimetric method, Phase 2 CEA study; assay type: in vivo, human; conditions: 100 mg qd oral 12 weeks, CEA patients, compared with placebo (p<0.01)
Protocol: as §1

leukotriene B4 (LTB4) = experiment: Ex vivo LTB4 in blood by ELISA, Phase 2 ACS study; design: species or system human; conditions: trough drug levels
Protocol: as §2

[4] = 12-week main population, 25 mg qd oral
[5] = 12-week main population, 50 mg qd oral
[6] = 12-week main population, 100 mg qd oral
[7] = 24-week CT substudy population, 25 mg qd oral
[8] = 24-week CT substudy population, 50 mg qd oral
[9] = 24-week CT substudy population, 100 mg qd oral

## CC(C#Cc1ccc(Cc2ccc(F)cc2)s1)N(O)C(N)=O (stereo not shown) [VIA-2291, N-[3-[5-[(4-fluorophenyl)methyl]-2-thienyl]-1-methyl-2-propynyl]-N-hydroxyurea]
LTE4
  reduction of urine LTE4: 65%
non-calcified plaque
  effect on new plaque lesions in serial MDCT images: reduced
  effect on non-calcified plaque volume in serial MDCT images: reduced
Leukotriene E4 (LTE4)
  effect on urinary leukotriene LTE4: significantly reduced
[1]; 100 mg group (P<0.01)
  change in hsCRP within group between 12 and 24 weeks: significant reduction
[1]; 12-week main population, 25 mg qd oral (n = 44)
  hsCRP at 12 weeks, Median (25-75): 1.1 (0.6, 2.5)
[1]; 12-week main population, 50 mg qd oral (n = 38)
  hsCRP at 12 weeks, Median (25-75): 1.3 (0.4, 2.7)
[1]; 12-week main population, 100 mg qd oral (n = 38)
  hsCRP at 12 weeks, Median (25-75): 0.6 (0.3, 2.5)
[1]; [4]
  hsCRP change from baseline, LSMEANS geometric mean (%): −25.32%
  hsCRP change from baseline, Median (25-75): −0.2 (−1.1, 0.4)
[1]; [5]
  hsCRP change from baseline, LSMEANS geometric mean (%): −29.13%
  hsCRP change from baseline, Median (25-75): −0.1 (−1.9, 0.1)
[1]; [6]
  hsCRP change from baseline, LSMEANS geometric mean (%): −38.99%
  hsCRP change from baseline, Median (25-75): −0.3 (−0.8, 0.1)
[1]; [7]
  hsCRP 12 weeks change from baseline, LSMEANS geometric mean (%): −24.82%
  hsCRP 12 weeks change from baseline, Median (25-75): −0.1 (−1.5, 0.8)
  hsCRP 24 weeks change from baseline, LSMEANS geometric mean (%): −32.91%
  hsCRP 24 weeks change from baseline, Median (25-75): −0.4 (−1.2, 0.3)
  hsCRP at 24 weeks, Median (25-75): 1.2 (0.7, 2.1)
[1]; 24-week CT substudy population, 25 mg qd oral (n = 23)
  hsCRP at 12 weeks, Median (25-75): 1.1 (0.6, 2.4)
[1]; [8]
  hsCRP 12 weeks change from baseline, LSMEANS geometric mean (%): −22.71%
  hsCRP 12 weeks change from baseline, Median (25-75): −0.1 (−5.0, 0.6)
  hsCRP 24 weeks change from baseline, LSMEANS geometric mean (%): −27.05%
  hsCRP 24 weeks change from baseline, Median (25-75): −0.2 (−3.7, 0.2)
  hsCRP at 24 weeks, Median (25-75): 1.5 (0.6, 2.6)
[1]; 24-week CT substudy population, 50 mg qd oral (n = 20)
  hsCRP at 12 weeks, Median (25-75): 1.7 (0.4, 4.3)
[1]; [9]
  hsCRP 12 weeks change from baseline, LSMEANS geometric mean (%): −39.05%
  hsCRP 12 weeks change from baseline, Median (25-75): −0.3 (−2.4, 0.1)
  hsCRP 24 weeks change from baseline, LSMEANS geometric mean (%): −67.16%
  hsCRP 24 weeks change from baseline, Median (25-75): −0.4 (−3.9, −0.2)
  hsCRP at 24 weeks, Median (25-75): 0.3 (0.2, 0.9)
[1]; 24-week CT substudy population, 100 mg qd oral (n = 18)
  hsCRP at 12 weeks, Median (25-75): 0.6 (0.4, 2.0)
[1]; 100-mg group at 24 weeks, compared with placebo (P=0.0002)
  decrease in hsCRP: 67%
[2]
  expression of inflammatory genes IL-6, IL 8, IL-10, MMP9, I-kappa-B, osteopontin: reduction in expression
LTB4
  reduction of ex vivo LTB4: approximately 90%
[3]
  reduction of relative necrotic core thickness: 21%
hsCRP
  reduction of hsCRP: 2.0 mg/L
Leukotriene B4 (LTB4); 100-mg group
  patients with approximately 80% inhibition of ex vivo LTB4: > 90 % of patients
Leukotriene B4 (LTB4); 100-mg group, ACS patients
  inhibition of ex vivo LTB4: approximately 80%
Leukotriene B4 (LTB4); all doses (25, 50, 100 mg qd), P<0.0001, dose-dependent
  effect on ex vivo leukotriene LTB4: significantly reduced
